Target: SARS-CoV 3CLpro (Severe acute respiratory syndrome coronavirus, UniProt P0C6U8)
Assay type: biochemical

| SMILES | 3CLpro activity in words | loss in inhibition/activity |
| --- | --- | --- |
| CC(=O)Nc1ccc(N(C(=O)Cn2nnc3ccccc32)C(C(=O)NC(C)(C)C)c2ccsc2)cc1 (centres unmarked) [13a] | moderate micromolar activity |  |
| O=C(Cn1nnc2ccccc21)N(Cc1ccsc1)c1ccc(NCc2ccccc2)cc1 [16k] | potency comparable to probe ML300 |  |
| O=C(Nc1ccc(N(Cc2ccsc2)C(=O)Cn2nnc3ccccc32)cc1)c1ccccc1 [16h] | lack of activity |  |
| O=C(Nc1ccc(N(Cc2ccsc2)C(=O)Cn2nnc3ccccc32)cc1)C1CCCCC1 [16g] | weak inhibitor |  |
| CNc1ccc(N(Cc2ccsc2)C(=O)Cn2nnc3ccccc32)cc1 [16j] | potency comparable to probe ML300 |  |
| COc1ncc(-c2ccc(N(Cc3ccsc3)C(=O)Cn3nnc4ccccc43)cc2)cn1 [17e] | micromolar activity |  |
| CC(C)(C)NC(=O)C(c1ccsc1)N(C(=O)Cn1nnc2ccccc21)c1ccc(NC(=O)C(C)(C)C)cc1 (centres unmarked) [13e] |  | three-fold |
| CC(C)COC(=O)Nc1ccc(N(C(=O)Cn2nnc3ccccc32)C(C(=O)NC(C)(C)C)c2ccsc2)cc1 (centres unmarked) [13l] | weak or inactive |  |
| CC(C)(C)NC(=O)C(c1ccsc1)N(C(=O)Cn1nnc2ccccc21)c1ccc(NC(=O)C2CC2)cc1 (centres unmarked) [13f] | loss of inhibition |  |
| CC(C)(C)NC(=O)C(c1ccsc1)N(C(=O)Cn1nnc2ccccc21)c1ccc(NC(=O)C2CCCCC2)cc1 (centres unmarked) [13h] | loss of inhibition |  |
| CC(C)(C)NC(=O)C(c1ccsc1)N(C(=O)Cn1nnc2ccccc21)c1ccc(NS(C)(=O)=O)cc1 (centres unmarked) [13b] |  | three-fold |

From publication PMC3878165 (Bioorganic & Medicinal Chemistry Letters, 2013)
